One test addresses human M2 mAChR (Homo sapiens, UniProt P08172). In kind it is binding.
The target of test [1] is all five receptor subtypes. The following applies: cited from earlier work.

Sequence of human M2 mAChR (P08172 whole entry): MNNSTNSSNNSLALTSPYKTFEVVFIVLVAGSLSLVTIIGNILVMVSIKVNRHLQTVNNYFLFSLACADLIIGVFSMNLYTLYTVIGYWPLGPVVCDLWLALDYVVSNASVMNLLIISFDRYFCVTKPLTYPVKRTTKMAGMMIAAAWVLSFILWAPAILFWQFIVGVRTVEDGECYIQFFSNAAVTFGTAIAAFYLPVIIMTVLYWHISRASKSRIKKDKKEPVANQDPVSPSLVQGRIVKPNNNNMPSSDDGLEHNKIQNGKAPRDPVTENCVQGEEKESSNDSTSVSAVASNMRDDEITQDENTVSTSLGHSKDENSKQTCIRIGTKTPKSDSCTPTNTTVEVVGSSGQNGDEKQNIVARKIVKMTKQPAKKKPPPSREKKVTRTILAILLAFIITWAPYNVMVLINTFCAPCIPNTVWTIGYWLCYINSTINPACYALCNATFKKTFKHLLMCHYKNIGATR

In the case of `CC[N+](CC)(CC)CCOc1cccc(OCC[N+](CC)(CC)CC)c1OCC[N+](CC)(CC)CC` [Gallamine, gallamine], the “allosteric effect on [3H]NMS binding (in words)” value on human M2 mAChR is “substantially reduced the specific binding”. Same read-out and setting: then `COc1nc2sc(C(=O)NC3CC3)c(N)c2c(C)c1Cl` [LY2033298], with “small NAM effect”. Consider `CN1[C@@H]2C[C@@H](OC(=O)[C@H](CO)c3ccccc3)C[C@H]1[C@@H]1O[C@@H]12` [scopolamine], for which the equilibrium dissociation constant (Kd) (in general, a measure of binding affinity in units of concentration) in test [1] is 0.4 to 2.1 nM.

The values above are taken from article PMC5877965 (Proceedings of the National Academy of Sciences of the …, 2018).
